The results in this text go back to US9533991B2, “Inhibitors of Bruton's tyrosine kinase” (PHARMACYCLICS LLC, priority 2014, dated 2017).

SMILES strings stand for the structures. pIC50: −log10 of the molar value.

What all share (assay type): biochemical
The target in one test is EGFR (Homo sapiens, UniProt P00533). Kind of test: Inhibition of a panel of kinases: EGFR. Conditions: kinase panel, Table 2. How it is done:
(§1) The degree of inhibition of a panel of kinases is determined using assays similar to the kinase assay described in Example 53.

In another test the target is T1, JAK3 (Homo sapiens, UniProt P52333).
T1 sequence (P52333 1-1124): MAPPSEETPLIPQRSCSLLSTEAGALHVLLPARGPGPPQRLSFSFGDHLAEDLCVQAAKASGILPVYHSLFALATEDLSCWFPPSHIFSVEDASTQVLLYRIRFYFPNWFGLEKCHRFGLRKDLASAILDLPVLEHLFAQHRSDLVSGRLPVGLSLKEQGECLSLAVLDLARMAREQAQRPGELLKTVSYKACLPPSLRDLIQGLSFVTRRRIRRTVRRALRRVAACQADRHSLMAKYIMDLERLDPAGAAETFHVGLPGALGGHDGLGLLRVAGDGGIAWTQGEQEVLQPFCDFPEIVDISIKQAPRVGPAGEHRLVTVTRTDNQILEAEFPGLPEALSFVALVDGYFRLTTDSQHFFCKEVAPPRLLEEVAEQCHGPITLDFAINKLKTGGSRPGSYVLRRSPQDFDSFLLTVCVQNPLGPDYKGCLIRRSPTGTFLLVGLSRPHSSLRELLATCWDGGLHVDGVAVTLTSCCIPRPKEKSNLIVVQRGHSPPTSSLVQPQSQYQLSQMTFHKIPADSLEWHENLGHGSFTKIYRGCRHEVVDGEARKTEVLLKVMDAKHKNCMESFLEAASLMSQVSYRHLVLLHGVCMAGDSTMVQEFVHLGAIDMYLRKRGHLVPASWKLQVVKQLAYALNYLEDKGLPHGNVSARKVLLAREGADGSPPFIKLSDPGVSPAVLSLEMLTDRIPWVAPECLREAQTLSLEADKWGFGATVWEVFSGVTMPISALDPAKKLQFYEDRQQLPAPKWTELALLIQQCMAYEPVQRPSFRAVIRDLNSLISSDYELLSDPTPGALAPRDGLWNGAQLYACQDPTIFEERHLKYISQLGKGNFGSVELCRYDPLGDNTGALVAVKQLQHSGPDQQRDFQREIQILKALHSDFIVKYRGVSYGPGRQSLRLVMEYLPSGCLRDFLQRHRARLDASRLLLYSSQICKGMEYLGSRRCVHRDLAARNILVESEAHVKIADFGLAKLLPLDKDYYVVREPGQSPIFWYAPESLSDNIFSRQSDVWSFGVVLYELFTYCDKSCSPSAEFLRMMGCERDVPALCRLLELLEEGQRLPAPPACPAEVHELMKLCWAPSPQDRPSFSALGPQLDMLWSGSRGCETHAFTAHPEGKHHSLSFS
Description: Inhibition of a panel of kinases: JAK3. Conditions: kinase panel, Table 2. The protocol:
as §1

The target in test [1] is T2, Btk (Homo sapiens, UniProt Q06187). Kind of test: Inhibition of a panel of kinases: Btk. Conditions: kinase panel, Table 2. The protocol: as §1
The target in a further test is LCK (Homo sapiens, UniProt P06239). Description: Inhibition of a panel of kinases: LCK. Conditions: kinase panel, Table 2. How it is done: as §1
The target in test [2] is T2, Btk. Description: Btk in vitro inhibitory activity (Method A, B or C). Further details: purified from insect cells as a full-length construct containing a N-terminal 6×-His tag; His6 (N); made in house; host or cells: insect cells (baculovirus, Sf21). To be noted: one of the methods of Example 53a, 53b, 53c. How it is done:
Btk kinase activity is determined using a time-resolved fluorescence resonance energy transfer (TR-FRET) methodology. Measurements are performed in a reaction volume of 50 μL using 96-well assay plates. Kinase enzyme, inhibitor, ATP (at the Km for the kinase), and 1 μM peptide substrate (Biotin-AVLESEEELYSSARQ-NH2 (SEQ ID NO: 1)) are incubated in a reaction buffer composed of 20 mM Tris, 50 mM NaCl, MgCl2 (5-25 mM depending on the kinase), MnCl2 (0-10 mM), 1 mM DTT, 0.1 mM EDTA, 0.01% bovine serum albumin, 0.005% Tween-20, and 10% DMSO at pH 7.4 for one hour. The reaction is quenched by the addition of 1.2 equivalents of EDTA (relative to divalent cation) in 25 μL of 1× Lance buffer (Perkin-Elmer). Streptavidin-APC (Perkin-Elmer) and Eu-labeled p-Tyr100 antibody (Perkin-Elmer) in 1× Lance buffer are added in a 25 μL volume to give final concentrations of 100 nM and 2.5 nM, respectively, and the mixture is allowed to incubate for one hour. The TR-FRET signal is measured on a multimode plate reader with an excitation wavelength (λEx) of 330 nm and detection wavelengths (λEm) of 615 and 665 nm. Activity is determined by the ratio of the fluorescence at 665 nm to that at 615 nm. For each compound, enzyme activity is measured at various concentrations of compound. Negative control reactions are performed in the absence of inhibitor in replicates of six, and two no-enzyme controls are used to determine baseline fluorescence levels. Inhibition constants, Ki(app), ware obtained using the program BatchKi (Kuzmic et al. (2000), Anal. Biochem. 286:45-50). IC50s are obtained according to the equation: IC50={Ki(app)/1+[ATP]/Km^ATP)}+[E]total/2;
For all kinases, [ATP]=Km^ATP, [Btk]total=0.5 nM and [Lck]total=6 nM.
Kinase activity is measured in vitro using electrophoretic mobility shift assay. The kinase reactions are assembled in a total volume of 25 μL in 384 well plates. The reactions comprise: BTK enzyme (1 nM, N-terminal His6-tagged, recombinant, full-length, human BTK purified from baculovirus Sf21 insect cell system), inhibitor, ATP (16 μM, the apparent Km for the kinase), fluorescently labeled peptide substrate (1 μM, FAM-GEEPLYWSFPAKKK-NH2 (SEQ ID NO: 2)) in a reaction buffer composed of 100 mM HEPES, pH7.5, 5 mM MgCl2 1 mM DTT, 0.1% bovine serum albumin, 0.01% Triton X-100, and 1% DMSO. The reaction is incubated for one hour and is quenched by the addition of 45 μL of termination buffer (100 mM HEPES, pH7.5, 0.01% Triton X-100, 30 mM EDTA). The terminated reactions are analyzed using 12 channel LabChip® 3000 microfluidic detection instrument (Caliper Life Sciences). The enzymatic phosphorylation of the peptide results in a change in net charge, enabling electrophoretic separation of product from substrate peptide. As substrate and product peptides are separated, two peaks of fluorescence are observed. Change in the relative fluorescence intensity of the substrate and product peaks is the parameter measured, reflecting enzyme activity. In the presence of an inhibitor, the ratio between product and substrate is altered: the signal of the product decreases, while the signal of the substrate increases.
Activity in each sample is determined as the product to sum ratio (PSR):P/(S+P), where P is the peak height of the product peptide and S is the peak height of the substrate peptide. For each compound, enzyme activity is measured at various concentrations (12 concentrations of compound spaced by 3× dilution intervals). Negative control samples (0%−inhibition in the absence of inhibitor) and positive control samples (100%−inhibition, in the presence of 20 mM EDTA) are assembled in replicates of four and are used to calculate %−inhibition values for each inhibitor at each concentration. Percent inhibition (Pinh) is determined using following equation: […]

Sequence of EGFR (P00533 25-1210, species assumed): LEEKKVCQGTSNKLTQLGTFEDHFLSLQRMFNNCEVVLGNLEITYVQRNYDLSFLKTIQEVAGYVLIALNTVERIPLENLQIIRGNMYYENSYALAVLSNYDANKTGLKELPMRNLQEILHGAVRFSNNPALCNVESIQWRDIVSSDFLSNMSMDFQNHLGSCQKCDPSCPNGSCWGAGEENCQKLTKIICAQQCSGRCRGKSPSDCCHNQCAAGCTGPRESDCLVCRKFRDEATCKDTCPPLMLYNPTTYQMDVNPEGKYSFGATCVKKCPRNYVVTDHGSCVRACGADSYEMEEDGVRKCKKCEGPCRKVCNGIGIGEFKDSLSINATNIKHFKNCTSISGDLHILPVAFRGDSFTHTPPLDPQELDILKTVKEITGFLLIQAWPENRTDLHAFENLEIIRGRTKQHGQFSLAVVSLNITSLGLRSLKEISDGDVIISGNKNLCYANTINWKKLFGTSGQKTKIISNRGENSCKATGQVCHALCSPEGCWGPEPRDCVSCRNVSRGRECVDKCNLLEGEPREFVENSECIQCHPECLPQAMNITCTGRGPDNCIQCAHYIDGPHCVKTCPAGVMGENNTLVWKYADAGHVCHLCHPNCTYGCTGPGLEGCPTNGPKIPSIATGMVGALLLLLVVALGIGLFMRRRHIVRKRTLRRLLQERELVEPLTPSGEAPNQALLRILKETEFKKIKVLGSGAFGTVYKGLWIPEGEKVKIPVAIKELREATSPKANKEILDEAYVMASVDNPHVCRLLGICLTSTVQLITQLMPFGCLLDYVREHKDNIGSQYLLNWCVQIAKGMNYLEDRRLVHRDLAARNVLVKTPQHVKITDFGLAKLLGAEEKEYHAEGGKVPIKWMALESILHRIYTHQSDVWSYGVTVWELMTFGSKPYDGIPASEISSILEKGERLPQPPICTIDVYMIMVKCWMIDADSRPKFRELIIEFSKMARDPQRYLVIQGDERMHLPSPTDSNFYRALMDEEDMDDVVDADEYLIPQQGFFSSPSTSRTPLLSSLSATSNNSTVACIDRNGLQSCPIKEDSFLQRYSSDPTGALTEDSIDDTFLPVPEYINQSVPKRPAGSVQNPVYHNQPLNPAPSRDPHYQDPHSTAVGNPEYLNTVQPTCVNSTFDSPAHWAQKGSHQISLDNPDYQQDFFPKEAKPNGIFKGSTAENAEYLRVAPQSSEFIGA
T2 sequence (Q06187 whole entry): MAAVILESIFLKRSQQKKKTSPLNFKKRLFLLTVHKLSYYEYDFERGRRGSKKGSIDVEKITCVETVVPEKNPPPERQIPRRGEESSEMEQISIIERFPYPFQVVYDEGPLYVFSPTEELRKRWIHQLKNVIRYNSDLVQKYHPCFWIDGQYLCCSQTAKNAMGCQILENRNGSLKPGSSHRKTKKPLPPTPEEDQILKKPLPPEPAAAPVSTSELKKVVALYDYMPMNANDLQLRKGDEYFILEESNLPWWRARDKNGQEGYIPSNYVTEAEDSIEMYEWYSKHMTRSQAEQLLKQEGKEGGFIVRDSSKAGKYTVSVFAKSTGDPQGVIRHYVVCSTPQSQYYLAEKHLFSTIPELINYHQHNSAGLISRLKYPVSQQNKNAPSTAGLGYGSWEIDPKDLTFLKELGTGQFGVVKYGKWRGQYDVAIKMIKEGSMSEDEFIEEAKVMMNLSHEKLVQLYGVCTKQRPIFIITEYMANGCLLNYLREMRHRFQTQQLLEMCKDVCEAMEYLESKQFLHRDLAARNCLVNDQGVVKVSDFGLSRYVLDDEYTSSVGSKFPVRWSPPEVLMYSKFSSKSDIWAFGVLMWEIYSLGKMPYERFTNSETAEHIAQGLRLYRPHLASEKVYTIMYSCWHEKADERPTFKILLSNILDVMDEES
Sequence of LCK (P06239 whole entry, species assumed): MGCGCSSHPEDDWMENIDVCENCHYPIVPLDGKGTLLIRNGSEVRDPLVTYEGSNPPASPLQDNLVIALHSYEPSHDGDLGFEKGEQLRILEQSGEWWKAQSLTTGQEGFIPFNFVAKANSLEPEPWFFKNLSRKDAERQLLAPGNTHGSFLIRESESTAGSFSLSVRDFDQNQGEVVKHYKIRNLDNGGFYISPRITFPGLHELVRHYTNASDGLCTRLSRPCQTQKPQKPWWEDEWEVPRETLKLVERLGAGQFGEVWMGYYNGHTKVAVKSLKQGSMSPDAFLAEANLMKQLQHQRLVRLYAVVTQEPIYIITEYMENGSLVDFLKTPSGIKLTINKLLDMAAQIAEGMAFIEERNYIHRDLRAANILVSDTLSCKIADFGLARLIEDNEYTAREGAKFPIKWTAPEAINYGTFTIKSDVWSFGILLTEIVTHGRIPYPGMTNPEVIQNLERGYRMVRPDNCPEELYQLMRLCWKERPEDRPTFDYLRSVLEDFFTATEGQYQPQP

As a reminder, the pIC50 is −log10 of the IC50, conventionally taken in molar units. `CCC#CC(=O)N1CC[C@@H](n2nc(-c3ccc(C(=O)Nc4cc(C)ccn4)cc3)c3c(N)ncnc32)C1` [Compound ID 7, (R)-4-(4-amino-1-(1-pent-2-ynoylpyrrolidin-3-yl)-1H-pyrazolo[3,4-d]pyrimidin-3-yl)-N-(4-methylpyridin-2-yl)benzamide]: the pIC50 is < 6.00 on EGFR; < 6.00 on JAK3; ≥ 8.00 against Btk [1]; < 6.00 at LCK; ≥ 8.00 against Btk [2].
For the molecule `Cc1ccnc(NC(=O)c2ccc(-c3nn([C@@H]4CCN(C(=O)C#CC5CC5)C4)c4ncnc(N)c34)cc2)c1` [Compound ID 8, (R)-4-(4-amino-1-(1-(3-cyclopropylpropioloyl)pyrrolidin-3-yl)-1H-pyrazolo[3,4-d]pyrimidin-3-yl)-N-(4-methylpyridin-2-yl)benzamide], the pIC50 on EGFR was 6.00 to 7.00; on JAK3 it was < 6.00; against Btk [1] it was ≥ 8.00; against LCK, < 6.00; against Btk [2], ≥ 8.00.
For `CC#CC(=O)N1CCC[C@@H](n2nc(-c3ccc(C(=O)Nc4cc(C(C)C)ccn4)cc3)c3c(N)ncnc32)C1` [Compound ID 6, (R)-4-(4-amino-1-(1-but-2-ynoylpiperidin-3-yl)-1H-pyrazolo[3,4-d]pyrimidin-3-yl)-N-(4-isopropylpyridin-2-yl)benzamide], the negative-log IC50 (pIC50) against EGFR is < 6.00; at JAK3 it was < 6.00; on Btk [1], ≥ 8.00; against LCK, 6.00 to 7.00; on Btk [2], ≥ 8.00.
Take `CC#CC(=O)N1CC[C@@H](n2nc(-c3ccc(C(=O)Nc4cc(C(F)(F)F)ccn4)cc3)c3c(N)ncnc32)C1` [Compound ID 1, (R)-4-(4-amino-1-(1-but-2-ynoylpyrrolidin-3-yl)-1H-pyrazolo[3,4-d]pyrimidin-3-yl)-N-(4-(trifluoromethyl)pyridin-2-yl)benzamide]: the pIC50 was 6.00 to 7.00 on EGFR; < 6.00 on JAK3; ≥ 8.00 at Btk [1]; 6.00 to 7.00 against LCK; ≥ 8.00 against Btk [2].
For `CC#CC(=O)N1CC[C@@H](n2nc(-c3ccc(C(=O)Nc4cc(C(C)C)ccn4)cc3)c3c(N)ncnc32)C1` [Compound ID 4, (R)-4-(4-amino-1-(1-but-2-ynoylpyrrolidin-3-yl)-1H-pyrazolo[3,4-d]pyrimidin-3-yl)-N-(4-isopropylpyridin-2-yl)benzamide], the pIC50 against EGFR was < 6.00; against JAK3, < 6.00; on Btk [1], ≥ 8.00; against LCK it was 6.00 to 7.00; against Btk [2] it was ≥ 8.00.
As to `CC#CC(=O)N1CC[C@@H](n2nc(-c3ccc(C(=O)Nc4cc(C#N)ccn4)cc3)c3c(N)ncnc32)C1` [Compound ID 5, (R)-4-(4-amino-1-(1-but-2-ynoylpyrrolidin-3-yl)-1H-pyrazolo[3,4-d]pyrimidin-3-yl)-N-(4-cyanopyridin-2-yl)benzamide], the pIC50 against EGFR was < 6.00; against JAK3 it was < 6.00; against Btk [1], ≥ 8.00; at LCK, 6.00 to 7.00; against Btk [2], ≥ 8.00.
For `CC#CC(=O)N1CCC[C@@H](n2nc(-c3ccc(C(=O)Nc4ccccn4)cc3)c3c(N)ncnc32)C1` [Compound ID 10, (R)-4-(4-amino-1-(1-but-2-ynoylpiperidin-3-yl)-1H-pyrazolo[3,4-d]pyrimidin-3-yl)-N-(pyridin-2-yl)benzamide], the pIC50 is ≥ 8.00 against EGFR, ≥ 8.00 at Btk [1], 6.00 to 7.00 against LCK and ≥ 8.00 on Btk [2].
For the molecule `CC#CC(=O)N1CCC[C@@H](n2nc(-c3ccc(C(=O)Nc4cc(C#N)ccn4)cc3)c3c(N)ncnc32)C1` [Compound ID 14, (R)-4-(4-amino-1-(1-but-2-ynoylpiperidin-3-yl)-1H-pyrazolo[3,4-d]pyrimidin-3-yl)-N-(4-cyanopyridin-2-yl)benzamide], the pIC50 against EGFR is 6.00 to 7.00; against Btk [1] it was ≥ 8.00; on LCK it was 7.00 to 8.00; at Btk [2], ≥ 8.00.
In the case of `CC#CC(=O)N1CC[C@@H](n2nc(-c3ccc(C(=O)Nc4cc(CCC)ccn4)cc3)c3c(N)ncnc32)C1` [Compound ID 9, (R)-4-(4-amino-1-(1-but-2-ynoylpyrrolidin-3-yl)-1H-pyrazolo[3,4-d]pyrimidin-3-yl)-N-(4-propylpyridin-2-yl)benzamide], the pIC50 is ≥ 8.00 against EGFR, ≥ 8.00 against Btk [1], 6.00 to 7.00 at LCK and ≥ 8.00 at Btk [2].
As for `CC#CC(=O)N1CCC[C@@H](n2nc(-c3ccc(C(=O)Nc4cc(C(F)(F)F)ccn4)cc3)c3c(N)ncnc32)C1` [Compound ID 12, (R)-4-(4-amino-1-(1-but-2-ynoylpiperidin-3-yl)-1H-pyrazolo[3,4-d]pyrimidin-3-yl)-N-(4-(trifluoromethyl)pyridin-2-yl)benzamide], the pIC50 is 6.00 to 7.00 at EGFR, ≥ 8.00 against Btk [1], 7.00 to 8.00 at LCK and ≥ 8.00 against Btk [2].
